Source: PMC9413995, “Synthesis and Assessment of the In Vitro and Ex Vivo Activity of Salicylate Synthase (Mbti) Inhibitors as New Candidates for the Treatment of Mycobacterial Infections” (Pharmaceuticals, 2022)
≈ marks a conversion by molar mass, not a printed value. Where “and” joins values, the source holds several entries; their conditions need not be identical. Equal values may be shown once. Entries after “also recorded” stand apart in the source; their conditions may differ. Read-outs that look alike come from different tables or passages of the source.

Assays:
[1] = target: T1, Recombinant M. tuberculosis MbtI (Mycobacterium tuberculosis, UniProt P9WFX1); assay: MbtI enzymatic assay (fluorimetric); format: biochemical; settings: for IC50: MbtI activity, calculated for compounds showing %RA < 20; for remaining activity at 100 µM / % RA (percentage of residual enzymatic activity): compound at 100 μM, 50 µM chorismic acid; for remaining activity at 100 µM: read-out: % RA (percentage of residual enzymatic activity)
T1 construct: made in house
Method: Recombinant M. tuberculosis MbtI was produced and purified, and enzyme activity determined as previously reported. All the reactions were performed at 37 °C, in a final volume of 400 μL of 50 mM Hepes pH 7.5, 5 mM MgCl2, containing 1–2 μM MbtI, by the addition of chorismic acid, and monitored using a Perkin Elmer LS3 fluorimeter (Ex. λ = 305 nm, Em. λ = 420 nm). […] IC50 values were determined by measuring the activity at different concentrations of the compound, and using the following equation with GraphPad software:(1) A[I] =A[0] × 1−[I]/[I]+IC50
where A[I] is the activity at inhibitor concentration [I] and A[0] is the activity in the absence of the inhibitor.

M. bovis BCG [2] = assay: microbe, parasite or virus in culture; format: cell-based; settings: iron-limiting chelated Sauton's medium, REMA, 15 days
M. bovis BCG [3] = settings: previous lead; cited from earlier work
[4] = test system: platelet (PLT), red blood cells (RBC), and white blood cells (WBC); assay: Blood cell count in whole blood of healthy volunteers; format: cell-based, human; settings: 100 nM, 500 nM, 1 µM, up to 3 h, room temperature
Method: (§1) Whole blood (WB), drawn with a 19-gauge needle without venous stasis into sodium citrate (0.129M, 1/10 volume/volume)-containing tubes (Vacutainer, Becton Dickinson), discarding the first 4 mL, was incubated with 1f (100 nM, 500 nM, and 1000 nM) or with solvent (DMSO; final dilution: 0.01%) up to 3 h at room temperature. Untreated (NT) WB of each healthy volunteer was used as a comparison.
(§2) PLT, RBC, and WBC counts were assessed at 0, 15, 30, 45, 60, 120 min and 3 h after the addition of 1f or solvent using Sysmex XE-2100 Automated Hematology Analyzer. Data were reported as count ± SD of each cell population. To evaluate the effect of 1f on platelet activation, conventional platelet activation markers [P-selectin and activated glycoprotein IIbIIIa (aGPIIbIIIa)], as well as platelet-associated tissue factor (TF) expression, were analyzed by WB flow cytometry as previously described at 0, 30 and 60 min after the addition of the highest concentration of 1f or solvent. […] Microvesicle formation, another well-known activation marker, was also assessed by flow cytometry at each time point after the addition of different concentrations of 1f or solvent. Fluorochrome-conjugated isotype controls were used to quantify the background labeling. […]

M. bovis BCG [5] = format: cell-based
M. abscessus = assay: Infection assay of MPI-2-eGFP mAMs with M. abscessus tdTomato; format: cell-based
M. bovis BCG [6] = format: cell-based; remark: listed apart in the source
platelets = assay: Platelet activation assessment by whole blood flow cytometry; format: cell-based, human
Method: as §1, §2

[7] = Mycobacterium tuberculosis variant bovis BCG, BCG, 360 h

T1 sequence (P9WFX1 whole entry): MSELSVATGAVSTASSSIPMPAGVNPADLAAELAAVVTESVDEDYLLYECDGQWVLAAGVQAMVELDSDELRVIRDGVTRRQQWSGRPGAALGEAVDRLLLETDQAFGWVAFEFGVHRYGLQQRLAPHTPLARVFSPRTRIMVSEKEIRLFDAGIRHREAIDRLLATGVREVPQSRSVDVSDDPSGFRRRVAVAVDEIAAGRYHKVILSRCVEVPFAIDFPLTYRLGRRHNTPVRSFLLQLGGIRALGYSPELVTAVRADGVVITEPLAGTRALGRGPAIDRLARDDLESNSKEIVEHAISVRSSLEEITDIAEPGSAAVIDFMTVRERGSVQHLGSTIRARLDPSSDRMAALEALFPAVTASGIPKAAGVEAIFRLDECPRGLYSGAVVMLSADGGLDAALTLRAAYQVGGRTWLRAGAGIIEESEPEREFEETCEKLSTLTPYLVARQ

Row | Compound | IC50 [1] | remaining activity at 100 µM [1] | melting point | MIC99 (M. bovis BCG [2]; [7]) | also measured
1 | N#Cc1cc(Oc2ccc3ccccc3c2)cc(-c2ccc(C(=O)O)o2)c1 [1h, 5-(3-Cyano-5-(naphthalen-2-yloxy)phenyl)furan-2-carboxylic acid] | 16.3 ± 1.2 µM | 12.7 ± 2% | 226 °C | 125 µM (≈ 44.4 µg/mL) | 
2 | N#Cc1cc(OCCc2ccccc2)cc(-c2ccc(C(=O)O)o2)c1 [1c, 5-(3-Cyano-5-phenethoxyphenyl)furan-2-carboxylic acid] | ~3 µM and 3 µM | 0.6 ± 0.5% | 202 °C | 250 µM (≈ 83.3 µg/mL) | 
3 | N#Cc1cc(OCc2ccc3ccccc3c2)cc(-c2ccc(C(=O)O)o2)c1 [1j, 5-(3-Cyano-5-(naphthalen-2-ylmethoxy)phenyl)furan-2-carboxylic acid] | 34.8 ± 2.5 µM | 19.8 ± 6.5% | 209 °C (dec.) | 250 µM (≈ 92.3 µg/mL) | 
4 | N#Cc1cc(OCCNc2ccccc2)cc(-c2ccc(C(=O)O)o2)c1 [1g, 5-(3-Cyano-5-(2-(phenylamino)ethoxy)phenyl)furan-2-carboxylic acid] | ~18 µM and 18 µM | 9.3 ± 2.2% |  | 250 µM (≈ 87.1 µg/mL) | 
5 | N#Cc1cc(OCc2ccccc2)cc(-c2ccc(C(=O)O)o2)c1 [1b, 5-(3-(Benzyloxy)-5-cyanophenyl)furan-2-carboxylic acid] | 15.6 ± 1.2 µM | 1.2 ± 0.4% | 187 °C | 250 µM (≈ 79.8 µg/mL) | 
6 | N#Cc1cccc(-c2ccc(C(=O)O)o2)c1 [I, 5-(3-cyanophenyl)furan-2-carboxylic acid] |  |  |  |  | MIC99 (M. bovis BCG [3]): 250 µM (≈ 53.3 µg/mL)
7 | N#Cc1cc(Oc2ccc3cccnc3c2)cc(-c2ccc(C(=O)O)o2)c1 [1i, 5-(3-Cyano-5-(quinolin-7-yloxy)phenyl)furan-2-carboxylic acid] | 16.6 ± 1 µM | 13.9 ± 3.1% | 263 °C (dec.) | 125 µM (≈ 44.5 µg/mL) | 
8 | N#Cc1cc(Oc2ccccc2)cc(-c2ccc(C(=O)O)o2)c1 [1a, 5-(3-Cyano-5-phenoxyphenyl)furan-2-carboxylic acid] | 23.1 ± 2.6 µM | 14% |  | 125 µM (≈ 38.2 µg/mL) | % RA (percentage of residual enzymatic activity) [1]: 14.0 ± 4.1%
9 | N#Cc1cc(OCCOc2ccccc2)cc(-c2ccc(C(=O)O)o2)c1 [1f, 5-(3-Cyano-5-(2-phenoxyethoxy)phenyl)furan-2-carboxylic acid] | 12.1 ± 2 µM | 5.5 ± 2.4% |  | 63 µM (≈ 22 µg/mL) | PLT, RBC, and WBC counts [4]: like untreated (NT) and DMSO-treated whole blood; also recorded: does not affect blood cell count; also recorded: no cytotoxicity against human cells; minimal concentration that prevented the production of siderophores (M. bovis BCG [5]; CAS assay, M. bovis BCG in chelated Sauton's medium): 32 µM; relation of antimycobacterial activity to inhibition of iron uptake (Universal CAS assay) (M. bovis BCG [5]; M. bovis BCG culture supernatants, 15 days): correlated to the inhibition of iron uptake; also recorded: positively related to the inhibition of iron uptake; Mab_tdTomato load 3-days p.t with respect to the prior time point (M. abscessus; highest concentration tested (32 μM), plate reader): significantly reduced; intracellular Mab_tdTomato burden in infected cells (microscopy, image segmentation) (M. abscessus; up to 32 μM, 2- and 3-days p.t): did not display a decrease in the Mab_tdTomato burden; Mab infection clearance / Mab_tdTomato load in infected MPI-2_eGFP (M. abscessus; up to 32 μM, 2- and 3-days p.t, plate reader): did not resolve Mab infection; also recorded: did not detect a significant efficacy in killing intracellular bacteria; BCG_tdTomato fluorescence / eGFP in infected MPI-2_eGFP (M. bovis BCG [6]): did not detect a reduction in Tdtomato fluorescence nor an increase in eGFP; also recorded: did not detect a significant efficacy in killing intracellular bacteria; platelet activation markers: P-selectin, monocyte-platelet and granulocyte-platelet aggregates, aGPIIbIIIa (platelets; 1 µM (highest concentration), 0, 30, 60 min): not affected; platelet-associated Tissue Factor expression, microvesicle formation (platelets; 1 µM, 0, 30, 60 min): not influenced
10 | N#Cc1cc(OCCCc2ccccc2)cc(-c2ccc(C(=O)O)o2)c1 [1d, 5-(3-Cyano-5-(3-phenylpropoxy)phenyl)furan-2-carboxylic acid] |  | ~25% | 186 °C |  | % RA (percentage of residual enzymatic activity) [1]: 25.6 ± 5.8%
11 | N#Cc1cc(OC/C=C/c2ccccc2)cc(-c2ccc(C(=O)O)o2)c1 [1e, (E)-5-(3-(Cinnamyloxy)-5-cyanophenyl)furan-2-carboxylic acid] | 13.5 ± 1 µM | 11.5 ± 1.7% | 170 °C | ~125 µM (≈ 43.2 µg/mL) | MIC99 (M. bovis BCG [2]): 125 µM (≈ 43.2 µg/mL)
